{"source": "ChEMBL document CHEMBL4266026", "about": "“Bisleuconothines B-D, Modified Eburnane-Aspidosperma Bisindole Alkaloids from Leuconotis griffithii” (J Nat Prod, 2018)", "data": [{"test_system": "A549", "assay": "Cytotoxicity against human A549 cells assessed as cell growth inhibition by MTT assay", "type": "functional, cell-based", "units": {"IC50": "µM"}, "values": [{"smiles": "CC[C@]12C=C(c3ccc(O)c4c3N[C@@H]3CC[C@@]5(CC)CCCN6CC[C@@]43[C@H]65)N3c4ccccc4C(=O)[C@]34CCN(CCC1)[C@H]24", "IC50": 33.6}, {"smiles": "CC[C@@]12CCCN3CC[C@]4(c5c(O)ccc([C@H]6C[C@@]7(CC)CCCN8CC[C@]9(C(=O)c%10ccccc%10N69)[C@H]87)c5N[C@@H]4CC1)[C@H]32", "IC50": 20.1}, {"smiles": "CC[C@@]12CCCN3CC[C@]4(c5c(ccc6c5O[C@@]57[C@@H]8N9CCC[C@]8(CC)C[C@@H]6N5c5ccccc5[C@]7(O)CC9)N(C=O)[C@@H]4CC1)[C@H]32", "IC50": 36.1}]}]}
